Measured values reported in PubChem BioAssay (NCI).
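Growth conditions: 96-well plates. Treatment: test compound, 48 hours, 5 concentrations. Analysis: linear interpolation between bracketing concentrations; unreached endpoints set to highest concentration. Abbreviation: GI50, concentration required for 50% inhibition of growth. TGI is the concentration that stops growth completely.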

What follows are molecules tested on ACHN renal (assay: NCI-60 cell line screen, 48 h).
`COC(=O)C(=Cc1cc(OC)c(OC)c(OC)c1-c1cc2c(cc1C1(C)OCCS1)OCO2)C(=O)OC` (stereo not given) was tested, and the TGI was > 100 µM.
With `C#CC1/C(=C\C(=O)OC)CCCC1O` (stereo not given) the TGI was > 100 µM.
With `CC12CCC(=O)C[C@H]1CCC(OC=O)C2Br` (stereo not given in full) the TGI was > 100 µM.
`COc1cnc2c(c1)C(=O)c1c-2n(CCCNC2=NCCS2)c(=O)c2cc([N+](=O)[O-])ccc12` was tested, and the GI50 was < 0.01 µM and the TGI was 1.15 µM.
With `COc1ccc(OCC(=O)O)c2c1CCCC2=O` the TGI was > 100 µM.
Work on `Cc1nc(Nc2ccc(Cl)cc2)sc1C(=O)NNC(=S)NN` yielded a TGI of 45.7 µM.
In the case of `COc1ccc2c(c1OCC(=O)O)C(=O)C(CCC(=O)O)CC2` (stereo not given), the TGI is reported as > 100 µM.
`Cc1ccc2nc(/C(=C/c3ccc(/C=C(\NC(=O)c4ccccc4)c4nc5ccc(C)cc5[nH]4)c(C)c3)NC(=O)c3ccccc3)[nH]c2c1` was tested, and the TGI was > 100 µM.
`COC1C(OC(=S)Nc2ccccc2)c2ccccc2N1C(C)=O` (stereo not given) was tested, and the TGI was > 100 µM.
For `Cc1ccc(C)c(NC(=O)c2cccc([N+](=O)[O-])c2O)c1`, the TGI was 57.6 µM.
With `N#CC(C(=O)/C(=N\NC(N)=O)C(C#N)c1ccc(Cl)cc1)c1ccc(Cl)cc1` (stereo not given) the TGI was > 100 µM.
With `CC(C)(C)c1cc(C(P(=O)(O)O)P(=O)(O)O)cc(C(C)(C)C)c1O` the TGI was > 100 µM.
`COc1c(O)c2c(=O)cc3c4c5c(cc(=O)c6c(O)c(OC)c(CC(C)O)c(c(c1CC(C)O)c24)c65)OCO3` (stereo not given) was tested, and the TGI was 5.96 µM.
In the case of `O=C1CCC2(c3ccc(Cl)cc3)Nc3cc(Cl)ccc3N12` (stereo not given), the TGI is reported as 24 µM.
In the case of `CC1(C)COC(c2cccc3c2C(=O)c2cccc(Cl)c2-3)=N1`, the TGI is reported as > 100 µM.
Work on `CN(C)CCC(/C=C/c1ccccc1)=N\Nc1ccccc1` yielded a TGI of 2.31 µM.
For `CCOC(=O)c1ccc(/C(C)=N/NC(N)=S)cc1`, the TGI was > 100 µM.
In the case of `Cc1cc2c(=O)c3ccccc3[nH]c2c(C(N)=O)c1C`, the TGI is reported as > 100 µM.
Work on `O=C(Nc1cccc(C(F)(F)F)c1)c1ccc(NC2=C(Cl)C(=O)N(Cc3ccc(Cl)cc3Cl)C2=O)cc1` yielded a GI50 of 11.9 µM and a TGI of 46.1 µM.

Each molecule was assayed on COLO 205 colon (assay: NCI-60 cell line screen, 48 h).
In the case of `COC(=O)C(=Cc1cc(OC)c(OC)c(OC)c1-c1cc2c(cc1C1(C)OCCS1)OCO2)C(=O)OC` (stereo not given), the TGI is reported as > 100 µM.
With `C#CC1/C(=C\C(=O)OC)CCCC1O` (stereo not given) the TGI was > 100 µM.
For `CC12CCC(=O)C[C@H]1CCC(OC=O)C2Br` (stereo not given in full), the TGI was > 100 µM.
With `COc1ccc(OCC(=O)O)c2c1CCCC2=O` the TGI was > 100 µM.
Molecule `Cc1nc(Nc2ccc(Cl)cc2)sc1C(=O)NNC(=S)NN` has a TGI of 43.6 µM.
For `COc1ccc2c(c1OCC(=O)O)C(=O)C(CCC(=O)O)CC2` (stereo not given), the TGI was > 100 µM.
For `Cc1ccc2nc(/C(=C/c3ccc(/C=C(\NC(=O)c4ccccc4)c4nc5ccc(C)cc5[nH]4)c(C)c3)NC(=O)c3ccccc3)[nH]c2c1`, the TGI was 80.4 µM.
`COC1C(OC(=S)Nc2ccccc2)c2ccccc2N1C(C)=O` (stereo not given) was tested, and the TGI was > 100 µM.
`CC1=Cc2cccc(C)c2C(=O)C1=O` gave a TGI of 3.49 µM.
In the case of `Cc1ccc(C)c(NC(=O)c2cccc([N+](=O)[O-])c2O)c1`, the TGI is reported as 31.1 µM.
With `N#CC(C(=O)/C(=N\NC(N)=O)C(C#N)c1ccc(Cl)cc1)c1ccc(Cl)cc1` (stereo not given) the TGI was > 100 µM.
`COc1c(O)c2c(=O)cc3c4c5c(cc(=O)c6c(O)c(OC)c(CC(C)O)c(c(c1CC(C)O)c24)c65)OCO3` (stereo not given) was tested, and the TGI was 0.765 µM.
`O=C1CCC2(c3ccc(Cl)cc3)Nc3cc(Cl)ccc3N12` (stereo not given) was tested, and the TGI was 18 µM.
For `CC1(C)COC(c2cccc3c2C(=O)c2cccc(Cl)c2-3)=N1`, the TGI was > 100 µM.
Work on `CN(C)CCC(/C=C/c1ccccc1)=N\Nc1ccccc1` yielded a TGI of 3.7 µM.
With `CCOC(=O)c1ccc(/C(C)=N/NC(N)=S)cc1` the TGI was > 100 µM.
With `Cc1cc2c(=O)c3ccccc3[nH]c2c(C(N)=O)c1C` the TGI was > 100 µM.
`O=C(Nc1cccc(C(F)(F)F)c1)c1ccc(NC2=C(Cl)C(=O)N(Cc3ccc(Cl)cc3Cl)C2=O)cc1` gave a GI50 of 4.78 µM and a TGI of 24.2 µM.

These molecules were tested on EKVX NSCLC (assay: NCI-60 cell line screen, 48 h).
With `COC(=O)C(=Cc1cc(OC)c(OC)c(OC)c1-c1cc2c(cc1C1(C)OCCS1)OCO2)C(=O)OC` (stereo not given) the TGI was > 100 µM.
In the case of `C#CC1/C(=C\C(=O)OC)CCCC1O` (stereo not given), the TGI is reported as > 100 µM.
`COc1cnc2c(c1)C(=O)c1c-2n(CCCNC2=NCCS2)c(=O)c2cc([N+](=O)[O-])ccc12` gave a GI50 of 1.01 µM and a TGI of 2.82 µM.
For `COc1ccc(OCC(=O)O)c2c1CCCC2=O`, the TGI was > 100 µM.
Molecule `Cc1nc(Nc2ccc(Cl)cc2)sc1C(=O)NNC(=S)NN` has a TGI of 46.8 µM.
`COc1ccc2c(c1OCC(=O)O)C(=O)C(CCC(=O)O)CC2` (stereo not given) was tested, and the TGI was > 100 µM.
For `Cc1ccc2nc(/C(=C/c3ccc(/C=C(\NC(=O)c4ccccc4)c4nc5ccc(C)cc5[nH]4)c(C)c3)NC(=O)c3ccccc3)[nH]c2c1`, the TGI was > 100 µM.
For `COC1C(OC(=S)Nc2ccccc2)c2ccccc2N1C(C)=O` (stereo not given), the TGI was > 100 µM.
For `CC1=Cc2cccc(C)c2C(=O)C1=O`, the TGI was 24.5 µM.
For `Cc1ccc(C)c(NC(=O)c2cccc([N+](=O)[O-])c2O)c1`, the TGI was > 100 µM.
With `N#CC(C(=O)/C(=N\NC(N)=O)C(C#N)c1ccc(Cl)cc1)c1ccc(Cl)cc1` (stereo not given) the TGI was > 100 µM.
For `CC(C)(C)c1cc(C(P(=O)(O)O)P(=O)(O)O)cc(C(C)(C)C)c1O`, the TGI was > 100 µM.
Molecule `O=C1CCC2(c3ccc(Cl)cc3)Nc3cc(Cl)ccc3N12` (stereo not given) has a TGI of 29.1 µM.
With `CC1(C)COC(c2cccc3c2C(=O)c2cccc(Cl)c2-3)=N1` the TGI was > 100 µM.
`CN(C)CCC(/C=C/c1ccccc1)=N\Nc1ccccc1` gave a TGI of 6.47 µM.
In the case of `CCOC(=O)c1ccc(/C(C)=N/NC(N)=S)cc1`, the TGI is reported as > 100 µM.
For `Cc1cc2c(=O)c3ccccc3[nH]c2c(C(N)=O)c1C`, the TGI was > 100 µM.
Work on `O=C(Nc1cccc(C(F)(F)F)c1)c1ccc(NC2=C(Cl)C(=O)N(Cc3ccc(Cl)cc3Cl)C2=O)cc1` yielded a GI50 of 20.3 µM and a TGI of 48.6 µM.

Each molecule was assayed on HOP-62 NSCLC (assay: NCI-60 cell line screen, 48 h).
In the case of `COC(=O)C(=Cc1cc(OC)c(OC)c(OC)c1-c1cc2c(cc1C1(C)OCCS1)OCO2)C(=O)OC` (stereo not given), the TGI is reported as > 100 µM.
In the case of `C#CC1/C(=C\C(=O)OC)CCCC1O` (stereo not given), the TGI is reported as > 100 µM.
For `CC12CCC(=O)C[C@H]1CCC(OC=O)C2Br` (stereo not given in full), the TGI was > 100 µM.
For `COc1ccc(OCC(=O)O)c2c1CCCC2=O`, the TGI was > 100 µM.
For `Cc1nc(Nc2ccc(Cl)cc2)sc1C(=O)NNC(=S)NN`, the TGI was 33 µM.
With `COc1ccc2c(c1OCC(=O)O)C(=O)C(CCC(=O)O)CC2` (stereo not given) the TGI was > 100 µM.
With `Cc1ccc2nc(/C(=C/c3ccc(/C=C(\NC(=O)c4ccccc4)c4nc5ccc(C)cc5[nH]4)c(C)c3)NC(=O)c3ccccc3)[nH]c2c1` the TGI was > 100 µM.
In the case of `COC1C(OC(=S)Nc2ccccc2)c2ccccc2N1C(C)=O` (stereo not given), the TGI is reported as > 100 µM.
`CC1=Cc2cccc(C)c2C(=O)C1=O` gave a TGI of 30.2 µM.
Work on `Cc1ccc(C)c(NC(=O)c2cccc([N+](=O)[O-])c2O)c1` yielded a TGI of 47.1 µM.
With `N#CC(C(=O)/C(=N\NC(N)=O)C(C#N)c1ccc(Cl)cc1)c1ccc(Cl)cc1` (stereo not given) the TGI was > 100 µM.
`CC(C)(C)c1cc(C(P(=O)(O)O)P(=O)(O)O)cc(C(C)(C)C)c1O` was tested, and the TGI was > 100 µM.
With `COc1c(O)c2c(=O)cc3c4c5c(cc(=O)c6c(O)c(OC)c(CC(C)O)c(c(c1CC(C)O)c24)c65)OCO3` (stereo not given) the TGI was 4.01 µM.
`O=C1CCC2(c3ccc(Cl)cc3)Nc3cc(Cl)ccc3N12` (stereo not given) gave a TGI of 29.2 µM.
`CN(C)CCC(/C=C/c1ccccc1)=N\Nc1ccccc1` was tested, and the TGI was 8.93 µM.
`CCOC(=O)c1ccc(/C(C)=N/NC(N)=S)cc1` was tested, and the TGI was > 100 µM.
In the case of `O=C(Nc1cccc(C(F)(F)F)c1)c1ccc(NC2=C(Cl)C(=O)N(Cc3ccc(Cl)cc3Cl)C2=O)cc1`, the GI50 is reported as 18 µM and the TGI is reported as 32.2 µM.

These molecules were tested on IGROV1 ovarian (assay: NCI-60 cell line screen, 48 h).
`COC(=O)C(=Cc1cc(OC)c(OC)c(OC)c1-c1cc2c(cc1C1(C)OCCS1)OCO2)C(=O)OC` (stereo not given) was tested, and the TGI was > 100 µM.
In the case of `C#CC1/C(=C\C(=O)OC)CCCC1O` (stereo not given), the TGI is reported as > 100 µM.
